# According to patent US4267180A, “Novel antibacterial amide compounds and process means for producing the same” (Warner-Lambert Company, priority 1980, dated 1981):
# Assays:
# Assay in all cases: Minimal Inhibitory Concentration, in vitro
# Assay type in all cases: cell-based
# Set-up in all cases: unit not given here
# [1] = test system: Serratia Marcescens IMM-16
# Source text: (§1) The compounds of the invention are new chemical compounds that are useful as pharmacological agents and especially as broad spectrum antibacterial agents. They are active in vitro against strains of both gram-positive and gram-negative bacteria.
# (§2) Minimal Inhibitory Concentration
# [2] = test system: Pseudomonas Aeruginosa UI-18
# Source text: as §1, §2
# [3] = test system: Enterobacter Cloacae IMM-11
# Source text: as §1, §2
# [4] = test system: Klebsiella Pneumoniae MGH-2
# Source text: as §1, §2
# [5] = test system: Pseudomonas Aeruginosa #28
# Source text: as §1, §2
# Staph Aureus UC-76 = test system: Staph Aureus UC-76
# Source text: as §1, §2
# Proteus Vulgaris 1810 = test system: Proteus Vulgaris 1810
# Source text: as §1, §2
Structure (SMILES),Minimal Inhibitory Concentration [1],Minimal Inhibitory Concentration [2],Minimal Inhibitory Concentration [3],Minimal Inhibitory Concentration [4],Minimal Inhibitory Concentration [5],Minimal Inhibitory Concentration (Staph Aureus UC-76),Minimal Inhibitory Concentration (Proteus Vulgaris 1810)
"CC(=O)NCCCCC(NC(C)=O)C(=O)Nc1ccc(-c2ncc(C(=O)N[C@@H](C(=O)N[C@@H]3C(=O)N4[C@@H]3SC(C)(C)[C@@H]4C(=O)O)c3ccc(O)cc3)c(O)n2)cc1 (mixture of isomers) [N,N'-Diacetyl-DL-Lysyl, N-[2-[4-(N,N'-Diacetyl-DL-lysylamino)phenyl]-4-hydroxy-5-pyrimidinylcarbonyl]amoxicillin]",50,3.1,25,> 50,1.6,1.6,6.3
"CC(=O)NC(C)C(=O)Nc1ccc(-c2ncc(C(=O)N[C@@H](C(=O)N[C@@H]3C(=O)N4[C@@H]3SC(C)(C)[C@@H]4C(=O)O)c3ccc(O)cc3)c(O)n2)cc1 (mixture of isomers) [N-Acetyl-DL-Alanyl, N-[2-[4-(N-Acetyl-DL-alanylamino)phenyl]-4-hydroxy-5-pyrimidinyl-carbonyl]amoxicillin]",6.3,1.6,6.3,25,1.6,0.2,0.8
"CC(=O)NC(CC(C)C)C(=O)Nc1ccc(-c2ncc(C(=O)N[C@@H](C(=O)N[C@@H]3C(=O)N4[C@@H]3SC(C)(C)[C@@H]4C(=O)O)c3ccc(O)cc3)c(O)n2)cc1 (mixture of isomers) [N-Acetyl-DL-Leucyl, N-[2-[4-(N-Acetyl-DL-leucylamino)phenyl]-4-hydroxy-5-pyrimidinylcarbonyl]amoxicillin]",25,3.1,25,> 50,3.1,1.6,3.1
"CSCCC(NC(C)=O)C(=O)Nc1ccc(-c2ncc(C(=O)N[C@@H](C(=O)N[C@@H]3C(=O)N4[C@@H]3SC(C)(C)[C@@H]4C(=O)O)c3ccc(O)cc3)c(O)n2)cc1 (mixture of isomers) [N-Acetyl-DL-Methionyl, N-[2-[4-(N-acetyl-DL-methionylamino)phenyl]-4-hydroxy-5-pyrimidinylcarbonyl]amoxicillin]",12.5,1.6,12.5,50,1.6,1.6,3.1
"CC(=O)N1CCCC1C(=O)Nc1ccc(-c2ncc(C(=O)N[C@@H](C(=O)N[C@@H]3C(=O)N4[C@@H]3SC(C)(C)[C@@H]4C(=O)O)c3ccc(O)cc3)c(O)n2)cc1 (mixture of isomers) [N-Acetyl-DL-Prolyl, N-[2-[4-(N-Acetyl-DL-prolylamino)phenyl]-4-hydroxy-5-pyrimidinylcarbonyl]amoxicillin]",12.5,1.6,12.5,50,1.6,0.8,1.6
"CC(=O)NC(C(=O)Nc1ccc(-c2ncc(C(=O)N[C@@H](C(=O)N[C@@H]3C(=O)N4[C@@H]3SC(C)(C)[C@@H]4C(=O)O)c3ccc(O)cc3)c(O)n2)cc1)C(C)C (mixture of isomers) [N-Acetyl-DL-Valyl, N-[2-[4-(N-Acetyl-DL-valylamino)phenyl]-4-hydroxy-5-pyrimidinylcarbonyl]amoxicillin]",25,1.6,25,> 50,1.6,3.1,3.1
"CC1(C)S[C@@H]2[C@H](NC(=O)[C@H](NC(=O)c3cnc(-c4ccc(NC(=O)[C@@H]5CCC(=O)N5)cc4)nc3O)c3ccc(O)cc3)C(=O)N2[C@H]1C(=O)O [5-Oxo-L-Prolyl, N-[2-[4-((5-oxo-L-prolyl)amino)phenyl]-4-hydroxy-5-pyrimidinylcarbonyl]amoxicillin]",12.5,1.6,6.3,50,0.8,0.8,0.8
"CC1(C)S[C@@H]2[C@H](NC(=O)[C@H](NC(=O)c3cnc(-c4ccc(NC(=O)CN5CCCC5=O)cc4)nc3O)c3ccc(O)cc3)C(=O)N2[C@H]1C(=O)O [(2-Oxo-1-pyrrolidinyl)acetyl, N-[2-[4-[(2-Oxo-1-pyrrolidinyl)acetylamino]phenyl]-4-hydroxy-5-pyrimidinylcarbonyl]amoxicillin]",25,3.1,12.5,25,1.6,1.6,1.6
CC(=O)NCC(=O)Nc1ccc(-c2ncc(C(=O)N[C@@H](C(=O)N[C@@H]3C(=O)N4[C@@H]3SC(C)(C)[C@@H]4C(=O)O)c3ccc(O)cc3)c(O)n2)cc1 [N-Acetyl Glycyl],6.3,6.3,6.3,50,1.6,0.8,1.6
"CC(=O)N[C@@H](C)C(=O)Nc1ccc(-c2ncc(C(=O)N[C@@H](C(=O)N[C@@H]3C(=O)N4[C@@H]3SC(C)(C)[C@@H]4C(=O)O)c3ccc(O)cc3)c(O)n2)cc1 [N-Acetyl-L-Alanyl, N-[2-[4-(N-acetyl-L-alanylamino)phenyl]-4-hydroxy-5-pyrimidinylcarbonyl]amoxicillin]",12.5,0.8,6.3,50,1.6,0.4,0.8
"CC(=O)N1CC(O)C[C@H]1C(=O)Nc1ccc(-c2ncc(C(=O)N[C@@H](C(=O)N[C@@H]3C(=O)N4[C@@H]3SC(C)(C)[C@@H]4C(=O)O)c3ccc(O)cc3)c(O)n2)cc1 (stereo partly drawn) [N-Acetyl-L-Hydroxyprolyl, N-[2-[4-(N-Acetyl-L-hydroxyprolylamino)phenyl]-4-hydroxy-5-pyrimidinylcarbonyl]amoxicillin]",50,1.6,12.5,50,1.6,0.8,3.1
"CC(=O)N[C@@H](Cc1ccc(O)cc1)C(=O)Nc1ccc(-c2ncc(C(=O)N[C@@H](C(=O)N[C@@H]3C(=O)N4[C@@H]3SC(C)(C)[C@@H]4C(=O)O)c3ccc(O)cc3)c(O)n2)cc1 [N-Acetyl-L-Tyrosyl, N-[2-[4-(N-Acetyl-L-tyrosylamino)phenyl]-4-hydroxy-5-pyrimidinylcarbonyl]amoxicillin]",12.5,3.1,12.5,50,1.6,1.6,3.1
